In brackets after ≈: the same amount, converted by molar mass. Read-outs that look alike come from different tables or passages of the source.
Assays:
Shigella sonnei = test: Antibacterial spectrum, standard serial dilution method; assay type: cell-based; conditions: Muller-Hinton medium, 37° C., 18 hours, read-out: Minimum Growth Inhibitory Concentration
Serratia sp. 4 = test: as above; assay type: cell-based; conditions: Muller-Hinton medium, 37° C., 18 hours, read-out: Minimum Growth Inhibitory Concentration
[1] = tested on: Escherichia coli JR66/W677; test: as above; assay type: cell-based; conditions: read-out: Minimum Growth Inhibitory Concentration
[2] = tested on: Pseudomonas aeruguinosa H9; test: as above; assay type: cell-based, Pseudomonas aeruginosa; conditions: Pseudomonas aeruguinosa H9; Muller-Hinton medium, 37° C., 18 hours; read-out: Minimum Growth Inhibitory Concentration
Escherichia coli W677 = test: as above; assay type: cell-based; conditions: W677, 18 h, read-out: Minimum Growth Inhibitory Concentration
[3] = tested on: Escherichia coli K-12 ML1410; test: as above; assay type: cell-based; conditions: K12ML1410, 18 h, read-out: Minimum Growth Inhibitory Concentration
[4] = tested on: Pseudomonas aeruguinosa ROS 134/PU21; test: as above; assay type: cell-based, Pseudomonas aeruginosa; conditions: ROS134/PU21, 18 h, read-out: Minimum Growth Inhibitory Concentration
[5] = tested on: Shigella dysernteriae JS11910; test: as above; assay type: cell-based; conditions: Muller-Hinton medium, 37° C., 18 hours, read-out: Minimum Growth Inhibitory Concentration
mice = test: Acute toxicity by intravenous injection in mice; conditions: for acute toxicity (survival, symptoms): mice, intravenous injection, 200 mg/kg
[6] = tested on: Mycobacterium smegmatis ATCC 607; test: Antibacterial spectrum, standard serial dilution method; assay type: cell-based; conditions: Mycolicibacterium smegmatis, read-out: Minimum Growth Inhibitory Concentration
[7] = tested on: Salmonella enteritidis 1891; test: as above; assay type: cell-based; conditions: Salmonella enterica, Muller-Hinton medium, 37° C., 18 hours, read-out: Minimum Growth Inhibitory Concentration
[8] = tested on: Pseudomonas aeruguinosa No.12; test: as above; assay type: cell-based, Pseudomonas aeruginosa; conditions: Muller-Hinton medium, 37° C., 18 hours, read-out: Minimum Growth Inhibitory Concentration
[9] = tested on: Pseudomonas aeruguinosa GN315; test: as above; assay type: cell-based, Pseudomonas aeruginosa; conditions: Pseudomonas aeruguinosa GN315; Muller-Hinton medium, 37° C., 18 hours; read-out: Minimum Growth Inhibitory Concentration
[10] = tested on: Pseudomonas aeruguinosa B-13; test: as above; assay type: cell-based, Pseudomonas aeruginosa; conditions: B13, Muller-Hinton medium, 37° C., 18 hours, read-out: Minimum Growth Inhibitory Concentration
Proteus rettgeri GN311 = test: as above; assay type: cell-based; conditions: Providencia rettgeri, read-out: Minimum Growth Inhibitory Concentration
Proteus rettgeri GN466 = test: as above; assay type: cell-based; conditions: Providencia rettgeri; Proteus rettgeri GN466; Muller-Hinton medium, 37° C., 18 hours; read-out: Minimum Growth Inhibitory Concentration
[11] = tested on: Corynebacterium bovis 1810; test: as above; assay type: cell-based; conditions: read-out: Minimum Growth Inhibitory Concentration
[12] = tested on: Staphylococcus epidermidis 109; test: as above; assay type: cell-based; conditions: Staphylococcus epidermidis, 109, 18 h, read-out: Minimum Growth Inhibitory Concentration
[13] = tested on: Pseudomonas aeruguinosa A3; test: as above; assay type: cell-based, Pseudomonas aeruginosa; conditions: read-out: Minimum Growth Inhibitory Concentration
Escherichia coli NIHJ = test: as above; assay type: cell-based; conditions: 18 h, read-out: Minimum Growth Inhibitory Concentration
[14] = tested on: Pseudomonas aeruguinosa PST1; test: as above; assay type: cell-based, Pseudomonas aeruginosa; conditions: Muller-Hinton medium, 37° C., 18 hours, read-out: Minimum Growth Inhibitory Concentration
[15] = tested on: Escherichia coli K-12 LA290 R56; test: as above; assay type: cell-based; conditions: K12LA290R56, 18 h, read-out: Minimum Growth Inhibitory Concentration
[16] = tested on: Escherichia coli K-12 R388; test: as above; assay type: cell-based; conditions: K12R388, 18 h, read-out: Minimum Growth Inhibitory Concentration
[17] = tested on: Bacillus subtilis PCI 219; test: as above; assay type: cell-based; conditions: read-out: Minimum Growth Inhibitory Concentration
[18] = tested on: Escherichia coli K-12 ML1629; test: as above; assay type: cell-based; conditions: K12ML1629, E. coli K-12 ML1629, Muller-Hinton medium, 37° C., 18 hours, read-out: Minimum Growth Inhibitory Concentration
[19] = tested on: Klebsiella pneumoniae 22 = 3038; test: as above; assay type: cell-based; conditions: Klebsiella pneumoniae, 18 h, read-out: Minimum Growth Inhibitory Concentration
[20] = tested on: Escherichia coli K-12 ML1630; test: as above; assay type: cell-based; conditions: K12ML1630, E. coli K-12 ML1630, Muller-Hinton medium, 37° C., 18 hours, read-out: Minimum Growth Inhibitory Concentration
[21] = tested on: Pseudomonas aeruguinosa 99; test: as above; assay type: cell-based, Pseudomonas aeruginosa; conditions: Muller-Hinton medium, 37° C., 18 hours, read-out: Minimum Growth Inhibitory Concentration
[22] = tested on: Pseudomonas aeruguinosa 21-75; test: as above; assay type: cell-based, Pseudomonas aeruginosa; conditions: 2175, Muller-Hinton medium, 37° C., 18 hours, read-out: Minimum Growth Inhibitory Concentration
[23] = tested on: Staphylococcus aureus 209P; test: Antibacterial spectrum, standard serial dilution method of Japan Society of Chemotherapy; assay type: cell-based; conditions: read-out: Minimum Growth Inhibitory Concentration
Serratia marcescens = test: Antibacterial spectrum, standard serial dilution method; assay type: cell-based; conditions: 18 h, read-out: Minimum Growth Inhibitory Concentration
Escherichia coli K-12 = test: as above; assay type: cell-based; conditions: read-out: Minimum Growth Inhibitory Concentration
[24] = tested on: Escherichia coli K-12 LA290 R55; test: as above; assay type: cell-based; conditions: K12LA290R55, 18 h, read-out: Minimum Growth Inhibitory Concentration

CNCC1CCC(O)C(OC2C(N)CC(O)C(N(C)C(=O)CCN)C2O)O1 (stereo not drawn) [Compound No. 4, 4-N-(β-Alanyl)-2'-deamino-2'-hydroxy-3-O-demethylistamycin Bo]
MIC (Shigella sonnei): 3.13 µg/mL (≈ 8.02 µM) | MIC (Serratia sp. 4): 12.5 µg/mL (≈ 32 µM) | MIC ([1]; JR66/W677, 18 h): 3.13 µg/mL (≈ 8.02 µM) | MIC [2]: 12.5 µg/mL (≈ 32 µM) | MIC (Escherichia coli W677): 1.56 µg/mL (≈ 4 µM) | MIC [3]: 6.25 µg/mL (≈ 16 µM) | MIC [4]: 100 µg/mL (≈ 256 µM) | MIC [5]: 3.13 µg/mL (≈ 8.02 µM) | acute toxicity (survival, symptoms) (mice): survived without showing any sympton of toxicity | toxicity (mice; overall statement, comparison with istamycin B or low toxicity): lower toxicity than itstamycin B | MIC ([6]; ATCC607, 18 h): 6.25 µg/mL (≈ 16 µM) | MIC [7]: 3.13 µg/mL (≈ 8.02 µM) | MIC [8]: 12.5 µg/mL (≈ 32 µM) | MIC [9]: 12.5 µg/mL (≈ 32 µM) | MIC [10]: 12.5 µg/mL (≈ 32 µM) | MIC (Proteus rettgeri GN311; Proteus rettgeri GN311, Muller-Hinton medium, 37° C., 18 hours): 0.78 µg/mL (≈ 2 µM) | MIC (Proteus rettgeri GN466): 0.39 µg/mL (≈ 0.999 µM) | MIC ([11]; Corynebacterium bovis, 1810, 18 h): 3.13 µg/mL (≈ 8.02 µM) | MIC [12]: 1.56 µg/mL (≈ 4 µM) | MIC ([13]; Pseudomonas aeruguinosa A3, Muller-Hinton medium, 37° C., 18 hours): 0.39 µg/mL (≈ 0.999 µM) | MIC (Escherichia coli NIHJ): 1.56 µg/mL (≈ 4 µM) | MIC [14]: 12.5 µg/mL (≈ 32 µM) | MIC [15]: 3.13 µg/mL (≈ 8.02 µM) | MIC [16]: 1.56 µg/mL (≈ 4 µM) | MIC ([17]; Bacillus subtilis, PCI219, 18 h): 3.13 µg/mL (≈ 8.02 µM) | MIC [18]: 3.13 µg/mL (≈ 8.02 µM) | MIC [19]: 3.13 µg/mL (≈ 8.02 µM) | MIC [20]: 6.25 µg/mL (≈ 16 µM) | MIC [21]: 25 µg/mL (≈ 64 µM) | MIC [22]: 12.5 µg/mL (≈ 32 µM) | MIC ([23]; 209P, 18 h): 1.56 µg/mL (≈ 4 µM) | MIC (Serratia marcescens): 3.13 µg/mL (≈ 8.02 µM) | MIC (Escherichia coli K-12; K12, 18 h): 1.56 µg/mL (≈ 4 µM) | MIC [24]: 6.25 µg/mL (≈ 16 µM)

CNCC1CCC(O)C(OC2C(N)CC(OC)C(N(C)C(=O)CN)C2O)O1 (stereo not shown) [Compound No. 1, 2'-Deamino-2'-hydroxyistamycin B]
MIC (Shigella sonnei): 6.25 µg/mL (≈ 16 µM) | MIC (Serratia sp. 4): > 100 µg/mL | MIC ([1]; E. coli JR66/W677, Muller-Hinton medium, 37° C., 18 hours): 3.13 µg/mL (≈ 8.02 µM) | MIC [2]: > 100 µg/mL | MIC (Escherichia coli W677): 1.56 µg/mL (≈ 4 µM) | MIC [3]: 6.25 µg/mL (≈ 16 µM) | MIC [4]: > 100 µg/mL | MIC [5]: 6.25 µg/mL (≈ 16 µM) | acute toxicity (survival, symptoms) (mice): survived without showing any sympton of toxicity | MIC ([6]; ATCC607, Mycobacterium smegmatis ATCC 607, Muller-Hinton medium, 37° C., 18 hours): 25 µg/mL (≈ 64 µM) | MIC [7]: 6.25 µg/mL (≈ 16 µM) | MIC [8]: 100 µg/mL (≈ 256 µM) | MIC [9]: 100 µg/mL (≈ 256 µM) | MIC [10]: > 100 µg/mL | MIC (Proteus rettgeri GN311; GN311, 18 h): 6.25 µg/mL (≈ 16 µM) | MIC (Proteus rettgeri GN466): 3.13 µg/mL (≈ 8.02 µM) | MIC ([11]; Corynebacterium bovis 1810, Muller-Hinton medium, 37° C., 18 hours): 3.13 µg/mL (≈ 8.02 µM) | MIC [12]: 6.25 µg/mL (≈ 16 µM) | MIC ([13]; Pseudomonas, A3, 18 h): 6.25 µg/mL (≈ 16 µM) | MIC (Escherichia coli NIHJ): 1.56 µg/mL (≈ 4 µM) | MIC [14]: 100 µg/mL (≈ 256 µM) | MIC [15]: 3.13 µg/mL (≈ 8.02 µM) | MIC [16]: 3.13 µg/mL (≈ 8.02 µM) | MIC ([17]; PCI219, Bacillus subtilis PCI 219, Muller-Hinton medium, 37° C., 18 hours): 3.13 µg/mL (≈ 8.02 µM) | MIC [18]: 6.25 µg/mL (≈ 16 µM) | MIC [19]: 12.5 µg/mL (≈ 32 µM) | MIC [20]: 6.25 µg/mL (≈ 16 µM) | MIC [21]: > 100 µg/mL | MIC [22]: > 100 µg/mL | MIC ([23]; S. aureus 209P, Muller-Hinton medium, 37° C., 18 hours): 3.13 µg/mL (≈ 8.02 µM) | MIC (Serratia marcescens): 12.5 µg/mL (≈ 32 µM) | MIC (Escherichia coli K-12; K12, E. coli K-12, Muller-Hinton medium, 37° C., 18 hours): 3.13 µg/mL (≈ 8.02 µM) | MIC [24]: 6.25 µg/mL (≈ 16 µM)

Source: patent publication US4795743A, “2'-deamino-2'-hydroxyistamycin Bo derivatives of low toxicity” (Zaidan Hojin Biseibutsu Kagaku Kenkyu Kai, priority 1986, dated 1989)
